# Values of other authors, collected in patent publication US20150272891A1, “DOSAGE FORMS COMPRISING APIXABAN AND MATRIX FORMER” (RATIOPHARM GMBH, priority 2012, published 2015).
# Conditions: compared with N-1 form
smiles,measurement,value
"COc1ccc(-n2nc(C(N)=O)c3c2C(=O)N(c2ccc(N4CCCCC4=O)cc2)CC3)cc1 [H2-2 form, 1-(4-methoxyphenyl)-7-oxo-6-[4-(2-oxopiperidin-1-yl)phenyl]-4,5,6,7-tetrahydro-1H-pyrazolo[3,4-c]pyridine-3-carbamide]",stability of polymorphous form,"less stable than the granular, non-solvate N-1 form"
